Reference: ChEMBL document CHEMBL1201862, “PubChem BioAssay data set” (2004)
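Following 48 hours of exposure in 96-well plates, responses at five concentrations were used to interpolate endpoints linearly. GI50: concentration for 50% inhibition of growth.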 Active and inactive are the calls of the source. Cut-off read from the data, not from the text of the source: active = GI50 up to about 1.1 µM and inactive = higher.

How the values were obtained:
Experiment in all cases: NCI anticancer screen, dose series, 48 h
HOP-92 = system: HOP-92
KM-20L2 = system: KM-20L2
NCI-H522 = system: NCI-H522
OVCAR-4 = system: OVCAR-4
HOP-62 = system: HOP-62
OVCAR-5 = system: OVCAR-5
UACC-62 = system: UACC-62
M14 = system: M14
HOP-18 = system: HOP-18
HCT-15 = system: HCT-15
COLO 205 = system: COLO 205
SF-295 = system: SF-295
SN12C = system: SN12C
K562 = system: K562
NCI-H23 = system: NCI-H23
HCT-116 = system: HCT-116
RXF 393 = system: RXF 393
LXFL 529 = system: LXFL 529
EKVX = system: EKVX
DLD-1 = system: DLD-1
UO-31 = system: UO-31
HT-29 = system: HT-29
HL-60 = system: HL-60
CAKI-1 = system: CAKI-1
CCRF-CEM = system: CCRF-CEM
Malme-3M = system: Malme-3M
786-0 = system: 786-0
DMS-114 = system: DMS-114
SF-268 = system: SF-268
UACC-257 = system: UACC-257
LOX IMVI = system: LOX IMVI
A549 = system: A549
SF-539 = system: SF-539
A498 = system: A498
SK-MEL-5 = system: SK-MEL-5
SR = system: SR
SNB-78 = system: SNB-78
U-251 = system: U-251
DMS-273 = system: DMS-273
NCI-H460 = system: NCI-H460
SNB-19 = system: SNB-19
MOLT-4 = system: MOLT-4
TK-10 = system: TK-10
M19-MEL = system: M19-MEL
OVCAR-3 = system: OVCAR-3
SNB-75 = system: SNB-75
SK-MEL-2 = system: SK-MEL-2
RPMI-8226 = system: RPMI-8226
SW-620 = system: SW-620
NCI-H226 = system: NCI-H226
IGROV-1 = system: IGROV-1
SK-OV-3 = system: SK-OV-3
ACHN = system: ACHN
OVCAR-8 = system: OVCAR-8
HCC 2998 = system: HCC 2998
KM12 = system: KM12
SK-MEL-28 = system: SK-MEL-28
XF498 = system: XF498

Structure (SMILES): CCCc1nc(NC#N)nc(C(=O)NC23CC4CC(CC(C4)C2)C3)c1C
- GI50 (HOP-92): > 100 µM (inactive)
- GI50 (KM-20L2): > 100 µM (inactive)
- GI50 (NCI-H522): > 100 µM (inactive)
- GI50 (OVCAR-4): > 100 µM (inactive)
- GI50 (HOP-62): > 100 µM (inactive)
- GI50 (OVCAR-5): > 100 µM (inactive)
- GI50 (UACC-62): > 100 µM (inactive)
- GI50 (M14): > 100 µM (inactive)
- GI50 (HOP-18): > 100 µM (inactive)
- GI50 (HCT-15): > 100 µM
- GI50 (COLO 205): > 100 µM (inactive)
- GI50 (SF-295): > 100 µM (inactive)
- GI50 (SN12C): > 100 µM (inactive)
- GI50 (K562): > 100 µM (inactive)
- GI50 (NCI-H23): > 100 µM (inactive)
- GI50 (HCT-116): > 100 µM (inactive)
- GI50 (RXF 393): > 100 µM (inactive)
- GI50 (LXFL 529): > 100 µM (inactive)
- GI50 (EKVX): > 100 µM (inactive)
- GI50 (DLD-1): > 100 µM (inactive)
- GI50 (UO-31): > 100 µM (inactive)
- GI50 (HT-29): > 100 µM (inactive)
- GI50 (HL-60): > 100 µM (inactive)
- GI50 (CAKI-1): > 100 µM (inactive)
- GI50 (CCRF-CEM): > 100 µM (inactive)
- GI50 (Malme-3M): > 100 µM (inactive)
- GI50 (786-0): > 100 µM (inactive)
- GI50 (DMS-114): > 100 µM (inactive)
- GI50 (SF-268): > 100 µM (inactive)
- GI50 (UACC-257): > 100 µM (inactive)
- GI50 (LOX IMVI): > 100 µM (inactive)
- GI50 (A549): > 100 µM (inactive)
- GI50 (SF-539): > 100 µM (inactive)
- GI50 (A498): > 100 µM (inactive)
- GI50 (SK-MEL-5): > 100 µM (inactive)
- GI50 (SR): > 100 µM (inactive)
- GI50 (SNB-78): > 100 µM (inactive)
- GI50 (U-251): > 100 µM (inactive)
- GI50 (DMS-273): > 100 µM (inactive)
- GI50 (NCI-H460): > 100 µM (inactive)
- GI50 (SNB-19): > 100 µM (inactive)
- GI50 (MOLT-4): > 100 µM (inactive)
- GI50 (TK-10): > 100 µM (inactive)
- GI50 (M19-MEL): > 100 µM (inactive)
- GI50 (OVCAR-3): > 100 µM (inactive)
- GI50 (SNB-75): > 100 µM (inactive)
- GI50 (SK-MEL-2): > 100 µM (inactive)
- GI50 (RPMI-8226): > 100 µM (inactive)
- GI50 (SW-620): > 100 µM (inactive)
- GI50 (NCI-H226): > 100 µM (inactive)
- GI50 (IGROV-1): > 100 µM (inactive)
- GI50 (SK-OV-3): > 100 µM (inactive)
- GI50 (ACHN): > 100 µM (inactive)
- GI50 (OVCAR-8): > 100 µM (inactive)
- GI50 (HCC 2998): > 100 µM (inactive)
- GI50 (KM12): > 100 µM (inactive)
- GI50 (SK-MEL-28): > 100 µM (inactive)

Structure (SMILES): O=S(=O)(c1ccccc1)C(CN1CCCCC1)S(=O)(=O)c1ccccc1
- GI50 (HOP-92): > 100 µM (inactive)
- GI50 (KM-20L2): > 100 µM (inactive)
- GI50 (NCI-H522): > 100 µM (inactive)
- GI50 (XF498): > 100 µM (inactive)
- GI50 (OVCAR-4): > 100 µM (inactive)
- GI50 (HOP-62): > 100 µM (inactive)
- GI50 (OVCAR-5): > 100 µM (inactive)
- GI50 (UACC-62): > 100 µM (inactive)
- GI50 (M14): > 100 µM (inactive)
- GI50 (HCT-15): > 100 µM
- GI50 (COLO 205): > 100 µM (inactive)
- GI50 (SF-295): > 100 µM (inactive)
- GI50 (SN12C): > 100 µM (inactive)
- GI50 (K562): > 100 µM (inactive)
- GI50 (NCI-H23): > 100 µM (inactive)
- GI50 (RXF 393): > 100 µM (inactive)
- GI50 (LXFL 529): > 100 µM (inactive)
- GI50 (DLD-1): > 100 µM (inactive)
- GI50 (UO-31): > 100 µM (inactive)
- GI50 (HT-29): > 100 µM (inactive)
- GI50 (HL-60): > 100 µM (inactive)
- GI50 (CAKI-1): > 100 µM (inactive)
- GI50 (CCRF-CEM): > 100 µM (inactive)
- GI50 (Malme-3M): > 100 µM (inactive)
- GI50 (786-0): > 100 µM (inactive)
- GI50 (SF-268): > 100 µM (inactive)
- GI50 (UACC-257): > 100 µM (inactive)
- GI50 (LOX IMVI): > 100 µM (inactive)
- GI50 (A549): > 100 µM (inactive)
- GI50 (SF-539): > 100 µM (inactive)
- GI50 (SR): > 100 µM (inactive)
- GI50 (U-251): > 100 µM (inactive)
- GI50 (DMS-273): > 100 µM (inactive)
- GI50 (NCI-H460): > 100 µM (inactive)
- GI50 (SNB-19): > 100 µM (inactive)
- GI50 (MOLT-4): > 100 µM (inactive)
- GI50 (TK-10): > 100 µM (inactive)
- GI50 (M19-MEL): > 100 µM (inactive)
- GI50 (OVCAR-3): > 100 µM (inactive)
- GI50 (SNB-75): > 100 µM (inactive)
- GI50 (SK-MEL-2): > 100 µM (inactive)
- GI50 (RPMI-8226): > 100 µM (inactive)
- GI50 (SW-620): > 100 µM (inactive)
- GI50 (NCI-H226): > 100 µM (inactive)
- GI50 (IGROV-1): > 100 µM (inactive)
- GI50 (SK-OV-3): > 100 µM (inactive)
- GI50 (ACHN): > 100 µM (inactive)
- GI50 (OVCAR-8): > 100 µM (inactive)
- GI50 (HCC 2998): > 100 µM (inactive)
- GI50 (KM12): > 100 µM (inactive)
- GI50 (SK-MEL-28): > 100 µM (inactive)
